Experimental data from patent US20020072602A1, “Micronized mirtazapine” (priority 2000, published 2002).
Entries after “also recorded” stand apart in the source; their conditions may differ.

Legend:
[1] = cited from earlier work
[2] = dissolution of mirtazapine before and after micronization; type: physicochemical; conditions: compared to mirtazapine prior to micronization
Source text: FIG. 1 is a graph of the dissolution data of mirtazapine before and after micronization. FIG. 2 is a graph of the percent of dissolved mirtazapine before and after micronization. FIG. 3 is a graph of showing the dissolution time and standard deviations of the dissolution results before and after micronization. […] This is valuable improvement provides for more accurate dosing of mirtazapine.

| Compound | solubility in water [1] | dissolution profile [2] |
| --- | --- | --- |
| CN1CCN2c3ncccc3Cc3ccccc3C2C1 (centres unmarked) [Mirtazapine, 1,2,3,4,10,14b-hexahydro-2-methyl-pyrazino [2,1-a]pyrido[2,3-c][2] benzazepine] | essentially insoluble in water | – |
| CN1CCN2c3ncccc3Cc3ccccc3C2C1 (centres unmarked) [micronized mirtazapine] | – | superior dissolution profile; also recorded: more stable and reproducible dissolution profile |
